Laboratory results from publication PMC12775434, “Ultra-large virtual screening unveils potent agonists of the neuromodulatory orphan receptor GPR139” (Nature Communications, 2025).
“And” between values parts separate entries of the source, which are not always exact repeats. Equal values may be shown once.

Tests used:
Format in all cases: cell-based
GPR139 (GoA activation) = molecular target: T1, GPR139 (GoA activation) (Homo sapiens, UniProt Q6DWJ6); test: BRET G protein activation (dissociation) assay, GoA, HEK293A; conditions: for G protein activation, GoA: individual replicates
T1 construct: expressed in transfected cells; host or cells: HEK293A (transient, Lipofectamine 2000)
T1 sequence (Q6DWJ6 1-353): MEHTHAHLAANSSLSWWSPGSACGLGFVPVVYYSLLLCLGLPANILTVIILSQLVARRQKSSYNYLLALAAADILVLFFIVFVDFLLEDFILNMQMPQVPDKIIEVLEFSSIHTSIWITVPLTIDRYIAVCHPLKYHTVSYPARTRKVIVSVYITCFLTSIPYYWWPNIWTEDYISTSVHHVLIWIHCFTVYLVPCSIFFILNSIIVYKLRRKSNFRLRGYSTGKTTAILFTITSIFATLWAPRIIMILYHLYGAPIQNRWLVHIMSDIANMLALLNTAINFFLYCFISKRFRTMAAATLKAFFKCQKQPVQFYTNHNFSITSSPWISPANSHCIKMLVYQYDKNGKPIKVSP
Description: (§1) Primary screening and pharmacological characterization of compounds were performed using a CHO-K1 cell line that stably expresses human GPR139 (GPR139-CHOk1). The GPR139-CHOk1 cell line was kindly provided by H. Lundbeck A/S, Denmark[24]. GPR139-CHOk1 cells were grown in Ham’s F-12 Kaighn’s Modification Medium (ThermoFisher #21127030) supplemented with 10% dialyzed fetal bovine serum (US origin, ThermoFisher #26400044), 100 units/mL Penicillin-Streptomycin (ThermoFisher #15140122), and 1 mg/mL Geneticin (ThermoFisher #11811031). […] M1R-CHOk1 cells were purchased from The Missouri S&T cDNA Resource Center (#CEM100TN00). M1R-CHOk1 cells were grown in Ham’s F12 Medium (ThermoFisher #21765029) supplemented with 10% fetal bovine serum (Brazilian origin, ThermoFisher #10270106), 100 units/mL Penicillin-Streptomycin, and 0.25 mg/mL Geneticin. HEK293A cells transiently transfected with GPR139 were used for additional pharmacological assessment of signaling pathways activated by GPR139. HEK239A cells were generously provided by Dr. Asuka Inoue, Tohoku University, Japan. HEK293A cells were grown in Dulbecco’s Modified Eagle Medium (ThermoFisher #31966047) supplemented with 10% dialyzed fetal bovine serum and 100 units/mL Penicillin-Streptomycin. Cell lines were maintained at 37 °C in humidified incubator equilibrated with 5% CO2.
(§2) The G protein dissociation assay developed by the lab of Kirill A. Martemyanov was used to measure the coupling of multiple G proteins by GPR139[57]. The assay was performed as described previously with minor modifications. HEK293A cells were reverse transfected 20–24 h prior to assay. 50,000 cells were plated in each well of white opaque tissue culture treated 96-well plates (PerkinElmer #6005680) previously coated with poly-D-lysine. Transfection solutions were prepared as described, and 10 µL transfection solution was mixed with 100 µL cells in each well. The cells in each well were transfected with 18.9 ng GPR139, 6.3 ng Venus 1-155 Gγ2, 6.3 ng Venus 159-239 Gβ1, 6.3 ng masGRK3ct-NanoLuc and 12.6 ng Gαi2, 12.6 ng Gαi3, 12.6 ng GαoA, 12.6 ng Gαq or 25.2 ng Gα12 using 375 nL Lipofectamine 2000 Transfection Reagent. Transfections with Gαq and Gα12 contained 6.3 ng DNA of the active subunit S1 of pertussis toxin (PTX-S1). Each transfection was normalized to 150 ng total DNA with pcDNA3.1. The BRET biosensors were a kind gift from the Martemyanov lab. On the day of the experiment the cells were washed with HEPES buffer. Test compounds were diluted in HEPES buffer from DMSO stocks (final DMSO concentration of maximally 0.3%). NanoLuc Luciferase substrate NanoGlo—furimazine (Promega #N1120) was diluted 1000-fold (final) in HEPES buffer. NanoGlo and test compounds were added, and measurements were performed after 10 s for Gi3, 15 s for Gi2 and GoA, 20 s for Gq, and 90 s for G12—the timepoint where maximal signal occurred with each G protein, ensuring proper determination of the potency for the G protein coupling. Simultaneous dual emission was measured at 535 nm and 475 nm on LUMIstar Omega Microplate Reader (BMG Labtech) at room temperature. The BRET ratio of 535 nm/475 nm (Venus/NanoLuc), reflecting the dissociation of the G protein heterotrimer, was used to determine the G protein activation. The basal BRET ratio obtained with buffer condition was subtracted from the absolute BRET ratio at a given test compound concentration, and the responses were normalized to the one obtained with 10 µM JNJ-63533054 for the activation of Gi2.
(§3) Pharmacological data and statistical analyses were performed in GraphPad Prism v9–10 (Graphpad Software Inc., San Diego, CA), which are also specifically described in the figure and table legends. […]

GPR139 (Gq activation) = molecular target: T2, GPR139 (Gq activation) (Homo sapiens, UniProt Q6DWJ6); test: BRET G protein activation (dissociation) assay, Gq, HEK293A; conditions: for G protein activation, Gq: individual replicates
T2 construct: expressed in transfected cells; host or cells: HEK293A (transient, Lipofectamine 2000)
T2 sequence (Q6DWJ6 1-353): T1 sequence (Q6DWJ6 1-353)
Description: as §1, §2, §3

GPR139 (Gi3 activation) = molecular target: T3, GPR139 (Gi3 activation) (Homo sapiens, UniProt Q6DWJ6); test: BRET G protein activation (dissociation) assay, Gi3, HEK293A; conditions: for G protein activation, Gi3: individual replicates
T3 construct: expressed in transfected cells; host or cells: HEK293A (transient, Lipofectamine 2000)
T3 sequence (Q6DWJ6 1-353): T1 sequence (Q6DWJ6 1-353)
Description: as §1, §2, §3

[1] = HEK293-A, normalized to JNJ-63533054 (JNJ(S))

Cc1cscc1-c1nc(CC(=O)N[C@@H](C)c2ccccc2)no1 [1.1(S)]
Emax (GPR139 (GoA activation); [1]): 96 ± 3% | EC50 (GPR139 (GoA activation); Supplementary Table 6): 63.1 nM | G protein activation, GoA (GPR139 (GoA activation); log [compound] M -4.5): 105 % of JNJ-63533054 at Gi2 and 96 % of JNJ-63533054 at Gi2 and 101 % of JNJ-63533054 at Gi2 | G protein activation, GoA (GPR139 (GoA activation); log [compound] M -5.0): 96 % of JNJ-63533054 at Gi2 and 86 % of JNJ-63533054 at Gi2 and 97 % of JNJ-63533054 at Gi2 | G protein activation, GoA (GPR139 (GoA activation); log [compound] M -5.5): 94 % of JNJ-63533054 at Gi2 and 83 % of JNJ-63533054 at Gi2 and 96 % of JNJ-63533054 at Gi2 | G protein activation, GoA (GPR139 (GoA activation); log [compound] M -6.0): 93 % of JNJ-63533054 at Gi2 and 78 % of JNJ-63533054 at Gi2 and 92 % of JNJ-63533054 at Gi2 | G protein activation, GoA (GPR139 (GoA activation); log [compound] M -6.5): 83 % of JNJ-63533054 at Gi2 and 70 % of JNJ-63533054 at Gi2 and 76 % of JNJ-63533054 at Gi2 | G protein activation, GoA (GPR139 (GoA activation); log [compound] M -7.0): 62 % of JNJ-63533054 at Gi2 and 52 % of JNJ-63533054 at Gi2 and 61 % of JNJ-63533054 at Gi2 | G protein activation, GoA (GPR139 (GoA activation); log [compound] M -7.5): 34 % of JNJ-63533054 at Gi2 and 29 % of JNJ-63533054 at Gi2 and 31 % of JNJ-63533054 at Gi2 | G protein activation, GoA (GPR139 (GoA activation); log [compound] M -8.0): 11 % of JNJ-63533054 at Gi2 and 8 % of JNJ-63533054 at Gi2 and 13 % of JNJ-63533054 at Gi2 | Emax (GPR139 (Gq activation); [1]): 35 ± 3% | EC50 (GPR139 (Gq activation); Supplementary Table 6): 200 nM | G protein activation, Gq (GPR139 (Gq activation); log [compound] M -4.5): 35 % of JNJ-63533054 at Gi2 and 45 % of JNJ-63533054 at Gi2 and 30 % of JNJ-63533054 at Gi2 | G protein activation, Gq (GPR139 (Gq activation); log [compound] M -5.0): 36 % of JNJ-63533054 at Gi2 and 38 % of JNJ-63533054 at Gi2 and 28 % of JNJ-63533054 at Gi2 | G protein activation, Gq (GPR139 (Gq activation); log [compound] M -5.5): 32 % of JNJ-63533054 at Gi2 and 38 % of JNJ-63533054 at Gi2 and 27 % of JNJ-63533054 at Gi2 | G protein activation, Gq (GPR139 (Gq activation); log [compound] M -6.0): 30 % of JNJ-63533054 at Gi2 and 34 % of JNJ-63533054 at Gi2 and 26 % of JNJ-63533054 at Gi2 | G protein activation, Gq (GPR139 (Gq activation); log [compound] M -6.5): 21 % of JNJ-63533054 at Gi2 and 30 % of JNJ-63533054 at Gi2 and 16 % of JNJ-63533054 at Gi2 | G protein activation, Gq (GPR139 (Gq activation); log [compound] M -7.0): 11 % of JNJ-63533054 at Gi2 and 15 % of JNJ-63533054 at Gi2 and 8 % of JNJ-63533054 at Gi2 | G protein activation, Gq (GPR139 (Gq activation); log [compound] M -7.5): 2.21 % of JNJ-63533054 at Gi2 and 3.62 % of JNJ-63533054 at Gi2 and 4 % of JNJ-63533054 at Gi2 | G protein activation, Gq (GPR139 (Gq activation); log [compound] M -8.0): -2.13 % of JNJ-63533054 at Gi2 and -0.806 % of JNJ-63533054 at Gi2 and 3.47 % of JNJ-63533054 at Gi2 | Emax (GPR139 (Gi3 activation); [1]): 45 ± 3% | EC50 (GPR139 (Gi3 activation); Supplementary Table 6, read-out: pEC50 Gi3 (converted)): 50.1 nM | G protein activation, Gi3 (GPR139 (Gi3 activation); log [compound] M -4.5): 50 % of JNJ-63533054 at Gi2 and 43 % of JNJ-63533054 at Gi2 and 51 % of JNJ-63533054 at Gi2 | G protein activation, Gi3 (GPR139 (Gi3 activation); log [compound] M -5.0): 46 % of JNJ-63533054 at Gi2 and 36 % of JNJ-63533054 at Gi2 and 43 % of JNJ-63533054 at Gi2 | G protein activation, Gi3 (GPR139 (Gi3 activation); log [compound] M -5.5): 46 % of JNJ-63533054 at Gi2 and 40 % of JNJ-63533054 at Gi2 and 43 % of JNJ-63533054 at Gi2 | G protein activation, Gi3 (GPR139 (Gi3 activation); log [compound] M -6.0): 44 % of JNJ-63533054 at Gi2 and 36 % of JNJ-63533054 at Gi2 and 42 % of JNJ-63533054 at Gi2 | G protein activation, Gi3 (GPR139 (Gi3 activation); log [compound] M -6.5): 37 % of JNJ-63533054 at Gi2 (2×) and 36 % of JNJ-63533054 at Gi2 | G protein activation, Gi3 (GPR139 (Gi3 activation); log [compound] M -7.0): 31 % of JNJ-63533054 at Gi2 and 26 % of JNJ-63533054 at Gi2 and 28 % of JNJ-63533054 at Gi2 | G protein activation, Gi3 (GPR139 (Gi3 activation); log [compound] M -7.5): 18 % of JNJ-63533054 at Gi2 and 14 % of JNJ-63533054 at Gi2 and 21 % of JNJ-63533054 at Gi2 | G protein activation, Gi3 (GPR139 (Gi3 activation); log [compound] M -8.0): 11 % of JNJ-63533054 at Gi2 and 5.42 % of JNJ-63533054 at Gi2 and 10 % of JNJ-63533054 at Gi2
